Values of other authors as cited in patent publication US9376416B2, “Composition containing scirpusin B, and process for producing composition containing scirpusin B” (MORINAGA & CO., LTD., priority 2010, dated 2016).

Key:
HIV = settings: reported in Non-Patent Citation 1
[1] = reported in Non-Patent Citation 2
α-amylase = settings: reported in Non-Patent Citation 3 (mouse α-amylase)
xanthine oxidase = xanthine oxidase (Homo sapiens, UniProt P47989); settings: reported in Non-Patent Citation 4
Sequence of xanthine oxidase (P47989 whole entry, species assumed): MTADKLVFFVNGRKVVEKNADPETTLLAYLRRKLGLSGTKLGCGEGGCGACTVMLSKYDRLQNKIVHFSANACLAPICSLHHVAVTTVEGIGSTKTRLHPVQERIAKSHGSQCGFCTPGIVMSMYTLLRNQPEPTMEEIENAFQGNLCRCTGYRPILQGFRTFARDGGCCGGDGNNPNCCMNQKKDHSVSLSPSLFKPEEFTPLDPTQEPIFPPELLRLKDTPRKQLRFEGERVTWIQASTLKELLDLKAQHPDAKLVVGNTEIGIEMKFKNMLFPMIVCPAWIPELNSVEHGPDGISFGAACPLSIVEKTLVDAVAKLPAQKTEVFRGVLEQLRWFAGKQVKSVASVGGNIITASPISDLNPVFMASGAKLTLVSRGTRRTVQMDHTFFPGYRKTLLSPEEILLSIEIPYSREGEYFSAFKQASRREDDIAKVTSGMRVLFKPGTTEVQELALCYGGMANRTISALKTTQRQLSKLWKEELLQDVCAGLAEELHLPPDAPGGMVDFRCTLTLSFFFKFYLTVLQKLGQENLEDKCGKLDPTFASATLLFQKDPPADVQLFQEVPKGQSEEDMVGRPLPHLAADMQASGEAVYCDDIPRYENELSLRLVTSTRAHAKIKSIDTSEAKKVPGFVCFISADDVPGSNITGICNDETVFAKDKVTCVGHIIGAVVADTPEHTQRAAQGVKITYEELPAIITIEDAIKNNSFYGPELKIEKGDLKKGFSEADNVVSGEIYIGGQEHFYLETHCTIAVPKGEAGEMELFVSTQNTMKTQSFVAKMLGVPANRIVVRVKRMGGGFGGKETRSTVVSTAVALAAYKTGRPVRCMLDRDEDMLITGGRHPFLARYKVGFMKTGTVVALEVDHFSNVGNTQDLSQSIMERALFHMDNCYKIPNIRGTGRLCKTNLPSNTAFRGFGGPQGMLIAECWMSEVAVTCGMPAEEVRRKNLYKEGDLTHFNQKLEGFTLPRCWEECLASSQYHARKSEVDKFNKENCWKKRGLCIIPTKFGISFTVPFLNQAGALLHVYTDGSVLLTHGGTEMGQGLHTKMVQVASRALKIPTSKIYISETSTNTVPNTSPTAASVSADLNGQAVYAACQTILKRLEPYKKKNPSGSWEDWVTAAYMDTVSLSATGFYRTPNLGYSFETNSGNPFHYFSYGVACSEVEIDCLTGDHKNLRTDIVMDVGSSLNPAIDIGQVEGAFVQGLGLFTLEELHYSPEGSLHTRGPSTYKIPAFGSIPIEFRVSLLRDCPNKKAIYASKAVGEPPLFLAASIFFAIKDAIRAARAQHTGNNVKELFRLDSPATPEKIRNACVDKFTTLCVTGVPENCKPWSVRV

SMILES: Oc1cc(O)cc(C2c3c(/C=C/c4ccc(O)c(O)c4)cc(O)cc3OC2c2ccc(O)c(O)c2)c1 (stereo not shown) [scirpusin B]
- anti-HIV activity (HIV): has anti-HIV activity
- superoxide anion removal activity [1]: has superoxide anion removal activity
- α-amylase activity inhibitory activity (α-amylase): has α-amylase activity inhibitory activity
- xanthine oxidase inhibitory activity (xanthine oxidase): has xanthine oxidase inhibitory activity
